In patent US20140287997A1, “USE OF GROWTH HORMONE OR GROWTH HORMONE RECEPTOR AGONISTS TO PREVENT OR TREAT STRESS-SENSITIVE PSYCHIATRIC ILLNESS” (Massachusetts Institute of Technology, priority 2013, published 2014):

Legend:
[1] = target: T1, ghrelin receptor in BLA cells (Rattus norvegicus, UniProt O08725); test: GH release from short-term BLA cell cultures; type: cell-based; conditions: versus vehicle, P<0.05
T1 construct: short-term cultures were generated of BLA cells and measured GH protein in the media following treatment with either MK-0677 or vehicle; endogenous in cells; host or cells: short-term primary cultures of basolateral amygdala (BLA) cells
Description: To determine whether ghrelin receptor stimulation in amygdala triggers the release of GH as it does from the pituitary,^43 short-term cultures were generated of BLA cells and measured GH protein in the media following treatment with either MK-0677 or vehicle.

rats [2] = test: Forced swim as a measure of depression; type: in vivo, rat; conditions: high dose, repeated ghrelin receptor stimulation
Description: (§1) Forced swim as a measure of depression was also examined. […] Repeated ghrelin receptor stimulation (mimicking one effect of chronic stress, which is to enhance the circulating levels of ghrelin and thus ghrelin signaling) induces depressive behaviors in rats.

rats [3] = test: Sucrose preference (measuring hedonia) as a measure of depression; type: in vivo, rat; conditions: repeated ghrelin receptor stimulation
Description: as §1, with “Sucrose preference (measuring hedonia)” for “Forced swim”, “depression with low dose MK0677 or high dose MK0677” for “depression”

[4] = system: GH-mediated signaling in the BLA; test: Auditory fear conditioning after intra-BLA AAV (GHA or GFP) and 10 days systemic MK-0677 or saline; type: in vivo, rat; conditions: repeated systemic MK-0677 for 10 days
Experimental: An AAV viral construct to overexpress a mutant form of the rat GH protein (GHA) that acts as a functional antagonist to endogenous GH was generated.^49,50 Following infusion of AAV to overexpress either GHA or a control protein (GFP) (FIG. 5f), rats were permitted to recover for 5 weeks. After recovery, rats that were infused with GHA received daily injections of either the ghrelin receptor agonist MK-0677 (MK) or saline (SAL) for 10 days. […] At 24 h after the final injection, all rats were subjected to auditory fear conditioning, followed by assessment of long-term auditory fear memory in a subsequent session 48 h later.

T1 sequence (O08725 whole entry): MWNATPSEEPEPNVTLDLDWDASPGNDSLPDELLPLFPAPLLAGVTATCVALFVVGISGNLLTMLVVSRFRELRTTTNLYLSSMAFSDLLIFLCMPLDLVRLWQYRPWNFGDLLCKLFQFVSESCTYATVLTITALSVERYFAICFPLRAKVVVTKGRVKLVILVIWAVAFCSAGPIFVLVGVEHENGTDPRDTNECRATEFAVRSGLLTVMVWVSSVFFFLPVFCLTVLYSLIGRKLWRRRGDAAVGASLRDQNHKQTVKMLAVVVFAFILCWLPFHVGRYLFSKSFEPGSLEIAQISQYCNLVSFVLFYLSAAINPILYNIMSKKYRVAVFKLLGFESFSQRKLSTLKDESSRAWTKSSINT

With CC(C)(N)C(=O)N[C@H](COCc1ccccc1)C(=O)N1CCC2(CC1)CN(S(C)(=O)=O)c1ccccc12 [MK-0677] the “GH protein released in the media” value [1] was “significantly elevated release of GH”, the forced swim behaviour (rats [2]) was “led to immobility in the forced swim” and the “sucrose preference (hedonia)” value (rats [3]; high dose) was “led to anhedonia”. The “sucrose preference (hedonia)” value (rats [3]; low dose) was “led to anhedonia” and the “long-term auditory fear memory” value [4] was “fear-enhancing effects”.
